Source: US20060084704A1, “Methods and compositions for enhancing degradation of nuclear receptor transcription factors and uses thereof” (priority 2004, published 2006)

What was measured:
LNCaP tumor cells = assay: In vivo LNCaP xenograft tumor growth in nude mice; conditions: JC9 100 mg/kg/day ip three times per week, 7 weeks
Method: In related in vivo studies, LNCap human prostate tumor cells are xenografted by subcutaneous injection (2×10^6 per site) into nude mice. Mice are subsequently treated by intraperitoneal injection of either the vehicle solution alone as a control or the test compounds (JC9)) at a dose of 100 milligrams per kilogram body weight, three times a week for 7 weeks. Tumor volume is measured twice a week over the next 7 weeks. […] Such results can be taken as a strong indication that the suppression of AR activity and the resulting reduction of tumor growth induced by AR-degrading compounds such as JC15 or by JC9, may be translated into a practical use for treating or preventing diseases and disorders related to AR activity, such as prostate and other cancers.
Two million LNCaP tumor cells were inoculated, subcutaneously, into the left flank of nude mice. In the experimental animals, the nude mice were give an intraperitoneal (ip) injection of compound JC9 at 100 mg/kg/day three times per week or with vehicle control only. After 7 weeks of treatment the tumors were excised, weighed and compared. The tumor weight in ratio of vehicle control to JC9 was 0.694 g:0.172 g.

glucocorticoid receptor = target: T1, glucocorticoid receptor (Homo sapiens, UniProt P04150); assay: Western blot of LNCaP cell lysates, GR; format: cell-based; conditions: 1 or 2 micromolar, 24 hours, presence or absence of DHT
T1 construct: endogenous in cells; host or cells: LNCaP
T1 sequence (P04150 1-777): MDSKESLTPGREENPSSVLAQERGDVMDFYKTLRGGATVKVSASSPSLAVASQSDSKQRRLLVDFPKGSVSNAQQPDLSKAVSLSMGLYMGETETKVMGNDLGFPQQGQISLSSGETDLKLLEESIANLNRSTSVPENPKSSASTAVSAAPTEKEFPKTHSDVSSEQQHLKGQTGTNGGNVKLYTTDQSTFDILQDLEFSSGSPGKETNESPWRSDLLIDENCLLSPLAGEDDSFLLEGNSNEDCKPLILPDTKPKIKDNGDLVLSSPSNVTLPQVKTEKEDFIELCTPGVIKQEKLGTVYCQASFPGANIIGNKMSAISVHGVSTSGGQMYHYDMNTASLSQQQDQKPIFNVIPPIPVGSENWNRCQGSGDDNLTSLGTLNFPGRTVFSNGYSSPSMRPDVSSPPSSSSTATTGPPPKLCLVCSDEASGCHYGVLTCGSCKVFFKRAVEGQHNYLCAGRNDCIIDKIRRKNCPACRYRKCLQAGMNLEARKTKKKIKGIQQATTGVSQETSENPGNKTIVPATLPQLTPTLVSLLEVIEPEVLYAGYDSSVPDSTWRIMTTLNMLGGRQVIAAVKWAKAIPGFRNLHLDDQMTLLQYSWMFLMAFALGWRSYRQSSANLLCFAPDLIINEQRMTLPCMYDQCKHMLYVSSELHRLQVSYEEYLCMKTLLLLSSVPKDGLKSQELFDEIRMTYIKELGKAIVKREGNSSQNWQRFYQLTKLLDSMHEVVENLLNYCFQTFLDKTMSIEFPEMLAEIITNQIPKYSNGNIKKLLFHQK
Method: Human prostate cancer LNCaP cells and T47D cells were plated at a density of 7×10^5 cells per 60 millimeter tissue culture dish in […] (RPMI) medium containing 10% FBS. The medium was changed to RPMI or DME medium containing 10% charcoal-stripped serum 24 hours later to deplete cellular androgens or estrogens. After another 24 hours, treatment with the test compounds began. The test dose of JC15 was 1 or 2 micromolar and the test does of JC9 was 1, 5 and 10 micromolar. LNCap cells also received dihydrotestosterone (DHT) (3 nanomolar). Control cells received a corresponding amount of the vehicle, dimethylsulfoxide (DMSO) (<0.04%) for an equivalent exposure time. Cells were incubated with JC15 for 24 or 48 hours, and were lysed in 250 microliters of 1×SDS/PAGE loading buffer. Approximately 40 micrograms of total cellular protein was loaded in each lane of a pre-cast gel (NuPAGE, Invitrogen). Protein separation and transfer were performed following the manufacturer's instructions.
For the prostate cell lysates, androgen receptor (AR) protein was visualized by incubating the resultant membranes with an anti-AR antibody (BD-PharMingen), followed by chemiluminescence detection (ECL Plus, Amersham). […] The resultant protein signals were quantified using densitometry and NIH ImageJ software.

| SMILES | reduction in tumor size compared to vehicle control (LNCaP tumor cells) | tumor weight (LNCaP tumor cells) | cellular concentration of glucocorticoid receptor (glucocorticoid receptor) |
| --- | --- | --- | --- |
| COc1ccc(C=CC(=O)C=C(O)C=Cc2ccc(OC)c(OC)c2)cc1OC [JC9, 5-hydroxy-1,7-bis(3,4-dimethoxyphenyl)-1,4,6-heptatrien-3-one] | 75% | 0.172 g | – |
| CCOC(=O)CCC(C(=O)C=Cc1ccc(O)c(OC)c1)C(=O)C=Cc1ccc(O)c(OC)c1 (stereo not drawn) [JC15, 7-(4-hydroxy-3-methoxyphenyl)-4-[3-(4-hydroxy-3-methoxyphenyl)acryloyl]-5-oxo-hept-6-enoic acid ethyl ester] | – | – | did not substantially affect |
